From ChEMBL document CHEMBL1909046, “DrugMatrix in vitro pharmacology data”

Tests used:
[1] = molecular target: Beta-2 adrenergic receptor (Homo sapiens, UniProt P07550); assay: DRUGMATRIX: Adrenergic beta2 radioligand binding (ligand: [3H] CGP-12177); type: cell membranes, Membrane; details: cho; Not Active = under 50% inhibition at 10 µM
[2] = molecular target: Sodium-dependent dopamine transporter (Homo sapiens, UniProt Q01959); assay: DRUGMATRIX: Dopamine Transporter radioligand binding (ligand: [125I] RTI-55); type: cell membranes, CHO-K1, Membrane; details: cho-k1; Not Active = under 50% inhibition at 10 µM
Sodium-dependent dopamine transporter, sequence (Q01959 whole entry): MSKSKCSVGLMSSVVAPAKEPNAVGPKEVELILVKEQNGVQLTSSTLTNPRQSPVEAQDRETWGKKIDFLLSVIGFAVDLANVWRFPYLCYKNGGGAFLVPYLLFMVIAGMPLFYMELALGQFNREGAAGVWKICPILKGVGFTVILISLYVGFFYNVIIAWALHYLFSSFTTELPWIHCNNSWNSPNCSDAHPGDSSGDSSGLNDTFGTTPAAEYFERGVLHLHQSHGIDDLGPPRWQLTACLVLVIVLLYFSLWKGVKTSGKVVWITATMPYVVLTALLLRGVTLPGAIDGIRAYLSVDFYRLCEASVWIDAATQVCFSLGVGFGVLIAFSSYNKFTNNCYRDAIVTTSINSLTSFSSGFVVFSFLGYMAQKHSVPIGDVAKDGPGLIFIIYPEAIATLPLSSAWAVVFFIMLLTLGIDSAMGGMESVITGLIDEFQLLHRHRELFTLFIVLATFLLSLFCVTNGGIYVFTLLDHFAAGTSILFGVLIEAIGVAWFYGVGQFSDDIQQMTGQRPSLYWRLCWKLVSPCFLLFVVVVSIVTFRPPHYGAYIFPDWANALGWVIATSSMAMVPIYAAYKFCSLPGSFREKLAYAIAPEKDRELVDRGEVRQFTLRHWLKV

Insulin receptor = Insulin receptor (Rattus norvegicus, UniProt P15127); type: cell membranes, Wistar, Liver, Membrane; note: in other assays of this panel Not Active means under 50% inhibition at 10 µM
Insulin receptor, sequence (P15127 27-759 limits assumed): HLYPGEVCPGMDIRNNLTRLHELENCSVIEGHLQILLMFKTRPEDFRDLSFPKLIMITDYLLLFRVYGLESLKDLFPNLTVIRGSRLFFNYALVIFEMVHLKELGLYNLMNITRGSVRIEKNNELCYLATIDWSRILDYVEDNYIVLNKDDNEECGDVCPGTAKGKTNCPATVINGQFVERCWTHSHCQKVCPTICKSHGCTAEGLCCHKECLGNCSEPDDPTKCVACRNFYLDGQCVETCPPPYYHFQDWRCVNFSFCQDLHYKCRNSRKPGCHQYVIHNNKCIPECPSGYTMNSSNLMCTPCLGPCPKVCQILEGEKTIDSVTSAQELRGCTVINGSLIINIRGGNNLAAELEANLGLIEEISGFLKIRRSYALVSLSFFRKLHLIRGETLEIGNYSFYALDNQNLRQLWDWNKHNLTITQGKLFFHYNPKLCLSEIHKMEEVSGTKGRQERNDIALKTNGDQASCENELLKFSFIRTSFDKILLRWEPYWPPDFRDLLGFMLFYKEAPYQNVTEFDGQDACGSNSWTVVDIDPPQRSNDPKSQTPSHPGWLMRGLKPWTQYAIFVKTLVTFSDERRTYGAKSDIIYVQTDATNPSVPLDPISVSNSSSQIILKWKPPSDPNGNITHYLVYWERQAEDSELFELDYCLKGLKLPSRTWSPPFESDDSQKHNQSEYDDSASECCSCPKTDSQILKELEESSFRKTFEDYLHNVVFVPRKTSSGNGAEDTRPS
Insulin receptor, sequence (P15127 764-1383 limits assumed): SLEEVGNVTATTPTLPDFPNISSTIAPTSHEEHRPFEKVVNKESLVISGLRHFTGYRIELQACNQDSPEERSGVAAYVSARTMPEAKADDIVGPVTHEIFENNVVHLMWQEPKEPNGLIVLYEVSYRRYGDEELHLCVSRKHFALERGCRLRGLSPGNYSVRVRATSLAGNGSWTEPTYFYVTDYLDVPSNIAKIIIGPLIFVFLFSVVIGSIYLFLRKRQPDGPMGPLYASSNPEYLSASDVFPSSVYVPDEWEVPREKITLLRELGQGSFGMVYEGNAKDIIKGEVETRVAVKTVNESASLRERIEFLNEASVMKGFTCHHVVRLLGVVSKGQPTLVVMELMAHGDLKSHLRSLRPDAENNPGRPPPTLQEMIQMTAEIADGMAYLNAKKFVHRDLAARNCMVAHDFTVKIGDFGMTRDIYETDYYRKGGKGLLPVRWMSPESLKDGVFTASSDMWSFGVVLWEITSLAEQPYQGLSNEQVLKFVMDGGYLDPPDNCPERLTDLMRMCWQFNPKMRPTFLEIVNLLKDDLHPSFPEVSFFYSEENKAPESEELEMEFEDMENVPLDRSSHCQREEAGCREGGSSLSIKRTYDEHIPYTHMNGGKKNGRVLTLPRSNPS

[3] = molecular target: Matrix metalloproteinase-9 (Homo sapiens, UniProt P14780); assay: biochemical; type: cell-based;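 note: inhibition of isolated MMP-9 enzyme activity toward a synthetic peptide substrate, from the DrugMatrix protease screening panel; in other assays of this panel Not Active means under 50% inhibition at 10 µM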
Matrix metalloproteinase-9, sequence (P14780 whole entry): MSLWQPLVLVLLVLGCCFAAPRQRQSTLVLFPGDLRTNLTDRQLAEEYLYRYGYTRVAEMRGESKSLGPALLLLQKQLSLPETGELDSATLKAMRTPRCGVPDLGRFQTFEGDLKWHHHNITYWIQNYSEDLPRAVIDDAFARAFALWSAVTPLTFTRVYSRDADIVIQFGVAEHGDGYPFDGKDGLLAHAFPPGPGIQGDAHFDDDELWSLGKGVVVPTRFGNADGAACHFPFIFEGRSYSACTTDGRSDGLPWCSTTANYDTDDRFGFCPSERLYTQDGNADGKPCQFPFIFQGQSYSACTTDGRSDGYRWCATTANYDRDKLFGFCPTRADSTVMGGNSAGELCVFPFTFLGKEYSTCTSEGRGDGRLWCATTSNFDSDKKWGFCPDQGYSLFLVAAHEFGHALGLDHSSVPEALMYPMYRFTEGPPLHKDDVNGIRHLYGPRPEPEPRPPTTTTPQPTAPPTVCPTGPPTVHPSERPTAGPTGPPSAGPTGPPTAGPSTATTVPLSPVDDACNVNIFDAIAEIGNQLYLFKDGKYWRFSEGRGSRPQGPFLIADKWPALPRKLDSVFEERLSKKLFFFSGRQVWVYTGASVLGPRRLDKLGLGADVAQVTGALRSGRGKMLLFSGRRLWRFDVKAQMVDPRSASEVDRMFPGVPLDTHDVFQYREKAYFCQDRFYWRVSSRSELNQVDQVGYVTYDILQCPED

[4] = molecular target: Protein kinase C alpha type (Homo sapiens, UniProt P17252); type: cell-based; details: sf9;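 note: inhibition of PKCalpha kinase activity measured in an enzyme assay with histone as the phosphorylation substrate; in other assays of this panel Not Active means under 50% inhibition at 10 µM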
[5] = molecular target: Epidermal growth factor receptor (Homo sapiens, UniProt P00533); assay: DRUGMATRIX: Protein Tyrosine Kinase, EGF Receptor enzyme inhibition (substrate: Poly(Glu:Tyr)); type: cell-based, Insect cells; details: insect cells; Not Active = under 50% inhibition at 10 µM
Epidermal growth factor receptor, sequence (P00533 whole entry): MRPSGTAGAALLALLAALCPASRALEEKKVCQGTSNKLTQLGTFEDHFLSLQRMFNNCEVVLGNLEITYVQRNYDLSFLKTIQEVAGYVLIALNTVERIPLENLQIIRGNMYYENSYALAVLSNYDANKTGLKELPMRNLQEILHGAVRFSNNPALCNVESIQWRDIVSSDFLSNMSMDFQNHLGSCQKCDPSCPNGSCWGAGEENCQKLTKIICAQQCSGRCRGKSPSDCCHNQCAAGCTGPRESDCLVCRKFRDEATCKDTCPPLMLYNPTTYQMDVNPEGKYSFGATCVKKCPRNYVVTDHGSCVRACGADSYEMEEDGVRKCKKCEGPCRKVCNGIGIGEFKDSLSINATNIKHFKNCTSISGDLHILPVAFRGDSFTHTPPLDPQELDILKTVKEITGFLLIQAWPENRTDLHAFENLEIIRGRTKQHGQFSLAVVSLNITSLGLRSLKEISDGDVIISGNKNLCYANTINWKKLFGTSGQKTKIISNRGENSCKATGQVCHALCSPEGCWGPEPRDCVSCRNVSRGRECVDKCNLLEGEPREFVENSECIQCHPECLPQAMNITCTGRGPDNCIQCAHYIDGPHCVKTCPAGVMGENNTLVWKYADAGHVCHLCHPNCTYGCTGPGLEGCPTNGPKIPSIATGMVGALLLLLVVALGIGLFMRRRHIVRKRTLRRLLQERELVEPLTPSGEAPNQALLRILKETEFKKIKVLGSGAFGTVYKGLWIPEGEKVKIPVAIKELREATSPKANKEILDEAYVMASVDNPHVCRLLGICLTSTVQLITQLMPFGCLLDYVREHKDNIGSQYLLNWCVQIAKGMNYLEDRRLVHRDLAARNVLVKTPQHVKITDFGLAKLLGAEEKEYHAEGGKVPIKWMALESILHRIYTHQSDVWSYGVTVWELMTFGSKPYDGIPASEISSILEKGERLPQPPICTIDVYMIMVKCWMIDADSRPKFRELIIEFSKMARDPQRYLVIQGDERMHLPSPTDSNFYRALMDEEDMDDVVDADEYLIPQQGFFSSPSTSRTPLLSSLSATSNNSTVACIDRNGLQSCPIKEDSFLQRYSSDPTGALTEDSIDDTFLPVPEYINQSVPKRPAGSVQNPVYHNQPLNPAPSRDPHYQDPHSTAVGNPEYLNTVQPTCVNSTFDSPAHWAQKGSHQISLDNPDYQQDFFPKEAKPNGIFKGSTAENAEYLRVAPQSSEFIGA

Beta-2 adrenergic receptor, sequence (P07550 whole entry): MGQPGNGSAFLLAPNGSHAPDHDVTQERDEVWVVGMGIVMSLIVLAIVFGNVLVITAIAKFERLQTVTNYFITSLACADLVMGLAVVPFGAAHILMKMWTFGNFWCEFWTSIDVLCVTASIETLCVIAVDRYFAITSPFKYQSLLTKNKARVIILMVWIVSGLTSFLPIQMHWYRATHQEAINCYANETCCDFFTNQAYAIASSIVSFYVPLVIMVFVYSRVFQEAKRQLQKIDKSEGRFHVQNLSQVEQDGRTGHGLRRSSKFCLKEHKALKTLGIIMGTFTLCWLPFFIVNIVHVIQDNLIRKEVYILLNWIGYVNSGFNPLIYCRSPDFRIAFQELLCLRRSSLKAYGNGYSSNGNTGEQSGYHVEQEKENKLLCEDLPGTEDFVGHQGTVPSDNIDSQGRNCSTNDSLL

**Q.** Which results are given for CC(C)(Oc1ccc(Cl)cc1)C(=O)O [CLOFIBRIC ACID]?
**A.** IC50 [1]: Not Active; IC50 [2]: Not Active; IC50 (Insulin receptor): Not Active; IC50 [3]: Not Active; IC50 [4]: Not Active; IC50 [5]: Not Active

**Q.** With CCCC1O[C@@H]2C[C@H]3[C@@H]4CCC5=CC(=O)C=C[C@]5(C)[C@H]4[C@@H](O)C[C@]3(C)[C@]2(C(=O)CO)O1 (stereo not given in full) [BUDESONIDE] as the compound, how does the IC50 [1] read?
**A.** Not Active

**Q.** And the IC50 [2]?
**A.** Not Active

**Q.** And the IC50 (Insulin receptor)?
**A.** Not Active

**Q.** What about the IC50 ([3]; read-out: IC50) of the same compound?
**A.** 1.99 µM

**Q.** And the IC50 [4]?
**A.** Not Active

**Q.** And the IC50 [5]?
**A.** Not Active

**Q.** How did the IC50 [1] turn out when O=C(CCCN1CC=C(n2c(=O)[nH]c3ccccc32)CC1)c1ccc(F)cc1 [DROPERIDOL] was run?
**A.** Not Active

**Q.** And the IC50 [2]?
**A.** Not Active

**Q.** What about the IC50 (Insulin receptor) of the same compound?
**A.** Not Active

**Q.** And the IC50 [3]?
**A.** Not Active

**Q.** What about the IC50 [4] of the same compound?
**A.** Not Active

**Q.** What about the IC50 [5] of the same compound?
**A.** Not Active

**Q.** Clc1cccc(Cl)c1NC1=NCCN1 [CLONIDINE] was tested. Which IC50 [1] did it give?
**A.** Not Active

**Q.** What about the IC50 [2] of the same compound?
**A.** Not Active

**Q.** What about the IC50 (Insulin receptor) of the same compound?
**A.** Not Active

**Q.** What about the IC50 [3] of the same compound?
**A.** Not Active

**Q.** What about the IC50 [4] of the same compound?
**A.** Not Active

**Q.** And the IC50 [5]?
**A.** Not Active

**Q.** For Cc1onc(O)c1CC(N)C(=O)O (racemic) [(R,S)-AMPA], which IC50 [1] is on record?
**A.** Not Active

**Q.** What about the IC50 [2] of the same compound?
**A.** Not Active

**Q.** What about the IC50 (Insulin receptor) of the same compound?
**A.** Not Active

**Q.** What about the IC50 [3] of the same compound?
**A.** Not Active

**Q.** What about the IC50 [4] of the same compound?
**A.** Not Active

**Q.** And the IC50 [5]?
**A.** Not Active
